Measured values taken from patent US9999222B2, “Herbicidal combination comprising azines” (BASF SE, priority 2014, dated 2018).
Where “and” joins values, the source holds several entries; their conditions need not be identical. Equal entries are not always repeated. Where two headings read alike, the source gives them in different places.

How the values were obtained:
Assay in all cases: Greenhouse test, pre-emergence treatment
[1] = system: POLCO; type: in vivo, Polygonum convolvulus
Method in brief: (§1)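 Seeds were sown in loamy sand with about 3.0% humus, and compounds in water were sprayed immediately after sowing, alone or as combinations formulated as 10% emulsion concentrates. Plants grew under hoods until rooted, at 10-25 °C or 20-35 °C by species, for 2 to 4 weeks. Damage was scored 0-100 (100 = no emergence or complete destruction), and Colby expected values were E=X+Y−(X·Y/100).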

[2] = system: LOLMU; type: in vivo, Lolium multiflorum; settings: Lolium multiflorum, pre-emergence, read-out: observed % activity; for inhibition at 8 g/ha: 8 g ai/ha; for inhibition at 16 g/ha: 16 g ai/ha
Method in brief: as §1

[3] = system: EPHHL; type: in vivo, Euphorbia heterophylla; settings: 20 DAT
Method in brief: as §1

[4] = system: GERPU; type: in vivo, Geranium pusillum; settings: 20 DAT
Method in brief: as §1

[5] = system: PHACA; type: in vivo, Phalaris canariensis; settings: for inhibition at 8 g/ha / inhibition at 16 g/ha: Phalaris canariensis, pre-emergence, read-out: observed % activity; for inhibition at 8 g/ha: 8 g ai/ha
Method in brief: as §1

[6] = system: BRADC; type: in vivo, Brachiaria decumbens; settings: Urochloa decumbens, pre-emergence, read-out: observed % activity; for inhibition at 16 g/ha: 16 g ai/ha
Excerpt: The culture containers used were plastic flowerpots containing loamy sand with approximately 3.0% of humus as the substrate. The seeds of the test plants were sown separately for each species.
For the pre-emergence treatment, the active ingredients, which had been suspended or emulsified in water, were applied directly after sowing by means of finely distributing nozzles. The containers were irrigated gently to promote germination and growth and subsequently covered with transparent plastic hoods until the plants had rooted. This cover caused uniform germination of the test plants, unless this had been impaired by the active ingredients.
Depending on the species, the plants were kept at 10-25° C. or 20-35° C., respectively.
The test period extended over 2 to 4 weeks. During this time, the plants were tended, and their response to the individual treatments was evaluated.
Evaluation was carried out using a scale from 0 to 100. 100 means no emergence of the plants, or complete destruction of at least the aerial moieties, and 0 means no damage, or normal course of growth. A moderate herbicidal activity is given at values of at least 60, a good herbicidal activity is given at values of at least 70, and a very good herbicidal activity is given at values of at least 85.
The respective stated components a and b, and if appropriate, c were formulated as a 10% by weight strength emulsion concentrate and, with addition of the amount of solvent system, introduced into the spray liquor used for applying the active compound.
In the examples, the solvent used was water.
In the examples below, using the method of S. R. Colby (1967) “Calculating synergistic and antagonistic responses of herbicide combinations”, Weeds 15, p. 22ff., the value E, which is expected if the activity of the individual active compounds is only additive, was calculated. E=X+Y−(X·Y/100) where • X=percent activity using active compound a at an application rate A; • Y=percent activity using active compound b at an application rate B; • E=expected activity (in %) by a+b at application rates A+B.
If the value found experimentally is higher than the value E calculated according to Colby, a synergistic effect is present.

[7] = system: COMBE; type: in vivo, Commelina benghalensis; settings: 20 DAT
Method in brief: as §1

[8] = system: AVEFA; type: in vivo, Avena fatua; settings: for observed % activity: 20 DAT
Method in brief: as §1

[9] = system: KCHSC; type: in vivo, Kochia scoparia; settings: 20 DAT
Method in brief: as §1

[10] = system: GALAP; type: in vivo, Galium aparine
Method in brief: as §1

[11] = system: ALOMY; type: in vivo, Alopecurus myosuroides; settings: Alopecurus myosuroides, pre-emergence, read-out: observed % activity; for inhibition at 8 g/ha: 8 g ai/ha; for inhibition at 16 g/ha: 16 g ai/ha
Method in brief: as §1

[12] = system: IPOHE; type: in vivo, Ipomoea hederacea; settings: Ipomoea hederacea, 480 h, 16 g ai/ha, 20 DAT, read-out: observed % activity
Method in brief: as §1

**Q.** With `CC1(c2nc(N)nc(Nc3c(F)c(F)cc(F)c3F)n2)CCC1` [compound 8, 6-(1-methylcyclobutyl)-N4-(2,3,5,6-tetrafluorophenyl)-1,3,5-triazine-2,4-diamine] as the compound, how does the observed % activity ([1]; 8 g ai/ha, 20 DAT) read?
**A.** Its observed % activity is 0%.

**Q.** What about the observed % activity ([1]; 16 g ai/ha, 20 DAT) of the same compound?
**A.** The observed % activity was 70%.

**Q.** And the inhibition at 8 g/ha ([1]; Fallopia convolvulus, pre-emergence, 192 h, 8 g ai/ha, 8 DAT, read-out: observed % activity)?
**A.** The inhibition at 8 g/ha was 65%.

**Q.** And the inhibition at 16 g/ha ([1]; Fallopia convolvulus, pre-emergence, 480 h, 16 g ai/ha, 20 DAT, read-out: observed % activity)?
**A.** Its inhibition at 16 g/ha is 80%.

**Q.** What about the inhibition at 8 g/ha ([2]; 192 h, 8 DAT) of the same compound?
**A.** The inhibition at 8 g/ha was 30%.

**Q.** What about the inhibition at 16 g/ha ([2]; 192 h, 8 DAT) of the same compound?
**A.** Its inhibition at 16 g/ha is 40%.

**Q.** And the inhibition at 8 g/ha ([2]; 480 h, 20 DAT)?
**A.** Its inhibition at 8 g/ha is 30%.

**Q.** And the inhibition at 16 g/ha ([2]; 480 h, 20 DAT)?
**A.** The inhibition at 16 g/ha was 40%.

**Q.** What about the observed % activity ([3]; 16 g ai/ha) of the same compound?
**A.** The observed % activity was 65%.

**Q.** And the inhibition at 8 g/ha ([3]; Euphorbia heterophylla, pre-emergence, 480 h, 8 g ai/ha, read-out: observed % activity)?
**A.** The inhibition at 8 g/ha was 45%.

**Q.** And the inhibition at 16 g/ha ([3]; Euphorbia heterophylla, pre-emergence, 480 h, 16 g ai/ha, read-out: observed % activity)?
**A.** The inhibition at 16 g/ha was 70%.

**Q.** What about the observed % activity ([4]; 8 g ai/ha) of the same compound?
**A.** The observed % activity was 20%.

**Q.** What about the observed % activity ([4]; 16 g ai/ha) of the same compound?
**A.** Its observed % activity is 80%.

**Q.** And the inhibition at 16 g/ha ([4]; Geranium pusillum, pre-emergence, 480 h, 16 g ai/ha, read-out: observed % activity)?
**A.** The inhibition at 16 g/ha was 60%.

**Q.** And the observed % activity ([5]; 16 g ai/ha, 20 DAT)?
**A.** The observed % activity was 60%.

**Q.** And the inhibition at 8 g/ha ([5]; 192 h, 8 DAT)?
**A.** Its inhibition at 8 g/ha is 25%.

**Q.** And the inhibition at 16 g/ha ([5]; 192 h, 16 g ai/ha, 8 DAT)?
**A.** The inhibition at 16 g/ha was 40%.

**Q.** And the inhibition at 8 g/ha ([5]; 480 h, 20 DAT)?
**A.** The inhibition at 8 g/ha was 28%.

**Q.** And the inhibition at 16 g/ha ([5]; 480 h, 16 g ai/ha, 20 DAT)?
**A.** The inhibition at 16 g/ha was 50%.

**Q.** And the inhibition at 16 g/ha ([6]; 192 h, 8 DAT)?
**A.** The inhibition at 16 g/ha was 60%.

**Q.** What about the inhibition at 8 g/ha ([6]; 480 h, 8 g ai/ha, 20 DAT) of the same compound?
**A.** Its inhibition at 8 g/ha is 78%.

**Q.** And the inhibition at 16 g/ha ([6]; 480 h, 20 DAT)?
**A.** Its inhibition at 16 g/ha is 70%.

**Q.** And the observed % activity ([7]; 8 g ai/ha)?
**A.** Its observed % activity is 50%.

**Q.** And the observed % activity ([7]; 16 g ai/ha)?
**A.** The observed % activity was 80%.

**Q.** And the inhibition at 8 g/ha ([7]; Commelina benghalensis, pre-emergence, 480 h, 8 g ai/ha, read-out: observed % activity)?
**A.** The inhibition at 8 g/ha was 60%.

**Q.** And the inhibition at 16 g/ha ([7]; Commelina benghalensis, pre-emergence, 480 h, 16 g ai/ha, read-out: observed % activity)?
**A.** Its inhibition at 16 g/ha is 65%.

**Q.** What about the observed % activity ([8]; 8 g ai/ha) of the same compound?
**A.** The observed % activity was 5% and 10%.

**Q.** And the observed % activity ([8]; 16 g ai/ha)?
**A.** The observed % activity was 10%.

**Q.** And the inhibition at 8 g/ha ([8]; Avena fatua, pre-emergence, 192 h, 8 g ai/ha, 8 DAT, read-out: observed % activity)?
**A.** Its inhibition at 8 g/ha is 0%.

**Q.** What about the inhibition at 16 g/ha ([8]; Avena fatua, pre-emergence, 192 h, 16 g ai/ha, 8 DAT, read-out: observed % activity) of the same compound?
**A.** The inhibition at 16 g/ha was 0%.

**Q.** And the observed % activity ([9]; 8 g ai/ha)?
**A.** Its observed % activity is 70% and 80%.

**Q.** And the observed % activity ([9]; 16 g ai/ha)?
**A.** Its observed % activity is 80%.

**Q.** And the inhibition at 8 g/ha ([9]; Bassia scoparia, pre-emergence, 480 h, 8 g ai/ha, read-out: observed % activity)?
**A.** The inhibition at 8 g/ha was 90%.

**Q.** What about the inhibition at 16 g/ha ([9]; Bassia scoparia, pre-emergence, 480 h, 16 g ai/ha, read-out: observed % activity) of the same compound?
**A.** Its inhibition at 16 g/ha is 85%.

**Q.** And the observed % activity ([10]; 8 g ai/ha, 20 DAT)?
**A.** The observed % activity was 20%.

**Q.** And the inhibition at 16 g/ha ([10]; Galium aparine, pre-emergence, 192 h, 16 g ai/ha, 8 DAT, read-out: observed % activity)?
**A.** The inhibition at 16 g/ha was 0%.

**Q.** And the inhibition at 8 g/ha ([11]; 192 h, 8 DAT)?
**A.** The inhibition at 8 g/ha was 50%.

**Q.** And the inhibition at 16 g/ha ([11]; 192 h, 8 DAT)?
**A.** The inhibition at 16 g/ha was 90%.

**Q.** What about the inhibition at 8 g/ha ([11]; 480 h, 20 DAT) of the same compound?
**A.** Its inhibition at 8 g/ha is 55%.

**Q.** What about the inhibition at 16 g/ha ([11]; 480 h, 20 DAT) of the same compound?
**A.** The inhibition at 16 g/ha was 90%.

**Q.** What about the inhibition at 16 g/ha [12] of the same compound?
**A.** The inhibition at 16 g/ha was 35%.
